Measurements from patent US12064513B2, “Cationic lipid exhibiting improved intracellular dynamics” (NOF CORPORATION, priority 2018, dated 2024).

Assay: Measurement of Liposomal pKa with TNS, empty LNP (Experimental Example 11)
Type: physicochemical
Settings: cationic lipid:DOPC:Chol:DMG-PEG2k=52.5:7.5:40:1.5
Description: 20 mM Citrate buffer, sodium phosphate buffer and tris HCl buffer each containing NaCl at a final concentration of 150 mM and adjusted to various pHs within the range of pH 3.0-10.0 were prepared. LNP prepared in [Experimental Example 3], 1, was diluted with PBS to a lipid concentration of 0.5 mM. TNS (manufactured by Sigma) was diluted with ultrapure water to 0.6 mM. TNS solution (2 μL), various LNP solutions (12 μL), and buffers adjusted to various pHs (186 μL) were added to a black 96 well plate. The plate was protected from light and shaken at 400 rpm for 10 min. The fluorescence intensity (excitation: 321 nm/emission: 447 nm) was measured using a plate reader (manufactured by TECAN). The relative fluorescence intensity was calculated as a percentage, with the maximum value of the fluorescence intensity in each LNP being 100% and the minimum value being 0%. Furthermore, the pH at which the relative fluorescence intensity was 50% was taken as Liposomal pKa.
For the evaluation of Liposomal pKa, empty LNP not encapsulating nucleic acid was used. The empty LNP (cationic lipid:DOPC:Chol:DMG-PEG2k=52.5:7.5:40:1.5) was produced by performing particle preparation in the method described in [Experimental Example 10] without using a nucleic acid.
Liposomal pKa was calculated by the method described in [Experimental Example 3].

Liposomal pKa: improved pKa
SMILES: CCCCCCCC/C=C\CCCCCCCC(=O)Oc1ccc(CC(=O)NCCC2CCN(CCSSCCN3CCC(CCNC(=O)Cc4ccc(OC(=O)CCCCCCC/C=C\CCCCCCCC)cc4)CC3)CC2)cc1 [O-Ph-amide-P4C2]
